What was measured:
[1] = tested on: IFN-γ-producing cells (antigen-specific cellular immunity); assay: Mouse immunization test 3 (liquid formulation for external use), IFN-γ ELISPOT; type: in vivo, C57BL/6 mouse; conditions: compared with acid-free comparative example
Experimental: (§1) Mouse immunization test was performed with the cream formulations using a model animal for immunological evaluation. Evaluation of the immunity induction level was performed by the ELISPOT method. Specifically, the hair of the back of the mouse was cut. The mouse was kept until it recovered from the skin damage due to the hair cutting. After that, a sample was applied to the back of the mouse for the predetermined time, and then removed. Then, the mouse was kept for predetermined days and the level of the antigen-specific cellular immunity was evaluated. After predetermined days from the application of the sample, the spleen was isolated and a spleen cell suspension was prepared. Spleen cells (3×10^6 cells/well) and the antigen peptide (100 μM) together with the culturing medium were placed into a well of an ELISPOT plate on which an anti-mouse IFN-γ antibody had been immobilized. The plate was cultured for 20 hours under the condition of 37° C. and 5% CO2. The number of the spots representing IFN-γ-producing cells (spot number/3×10^6 cells) was evaluated by the ELISPOT method. In all cases, 4 mg of the cream formulation was applied once for 24 hours and the spleen was isolated 6 days after the completion of the application.
Mouse Immunization Test 3 (Liquid Formulation for External Use)
Using a liquid formulation for external use produced as described above, mouse immunization test was performed in the same manner as that in the mouse immunization test 1. The dose was 67 μL as described above. The liquid formulation was applied once for 24 hours/week and a spleen was isolated 6 days after completion of the application. The mouse used was a C57BL/6.

[2] = tested on: IFN-γ-producing cells (antigen-specific cellular immunity); assay: Mouse immunization test 2 (tape preparation), IFN-γ ELISPOT; type: in vivo, genetically modified mouse; conditions: compared with acid-free comparative example
Experimental: as §1
Mouse Immunization Test 2 (Tape Preparation)
Using thus obtained tape preparation, mouse immunization test 2 was performed in the same manner as in the mouse immunization test 1. The preparation was applied once for 24 hours/week and a spleen was isolated 6 days after administration. Genetically modified mouse which can be used to evaluate the cellular immunity inducing ability of the HLA-A*0201 type MHC restricted peptide was used as model animal for immunological evaluation.
In Example 69, the skin was injured with a microcutter (MICRO FEATHER No. 7330G, manufactured by FEATHER) before the application of the preparation.

| SMILES | cellular immunity induction, in words (acid added to liquid formulation) [1] | cellular immunity induction, in words (acid blended in tape preparation) [2] |
| --- | --- | --- |
| O=C(O)CC(O)(CC(=O)O)C(=O)O [citric acid] | effective | – |
| CCCCCCCCCC(=O)O [decanoic acid] | – | strong cellular immunity was induced |
| O=C(O)c1ccccc1O [salicylic acid] | effective | – |
| CC(C)CCCCCCCCCCCCCCC(=O)O [isostearic acid] | – | excellent results |
| O=C(O)/C=C\C(=O)O [maleic acid] | effective | – |
| O=C(O)CC(O)C(=O)O (racemic) [malic acid] | effective | – |
| CCCCCCCCCCCC(=O)O [lauric acid] | – | excellent results |
| CCCCCCCCCCCCCC(=O)O [myristic acid] | – | excellent results |
| CC(O)C(=O)O (stereo not drawn) [lactic acid] | effective | excellent results |
| CCCCCCCC/C=C\CCCCCCCC(=O)O [oleic acid] | – | excellent results |
| CS(=O)(=O)O [methanesulfonic acid] | effective | – |

Source: patent publication US10071051B2, “WT1 peptide cancer vaccine composition for transdermal administration” (NITTO DENKO CORPORATION, priority 2013, dated 2018)
